Data: paper PMC9748837 (Chemico-Biological Interactions, 2021)

Tests used:
OATP2B1 = target: T1, OATP2B1 (Homo sapiens, UniProt O94956); assay type: cell-based
T1 sequence (O94956 1-709): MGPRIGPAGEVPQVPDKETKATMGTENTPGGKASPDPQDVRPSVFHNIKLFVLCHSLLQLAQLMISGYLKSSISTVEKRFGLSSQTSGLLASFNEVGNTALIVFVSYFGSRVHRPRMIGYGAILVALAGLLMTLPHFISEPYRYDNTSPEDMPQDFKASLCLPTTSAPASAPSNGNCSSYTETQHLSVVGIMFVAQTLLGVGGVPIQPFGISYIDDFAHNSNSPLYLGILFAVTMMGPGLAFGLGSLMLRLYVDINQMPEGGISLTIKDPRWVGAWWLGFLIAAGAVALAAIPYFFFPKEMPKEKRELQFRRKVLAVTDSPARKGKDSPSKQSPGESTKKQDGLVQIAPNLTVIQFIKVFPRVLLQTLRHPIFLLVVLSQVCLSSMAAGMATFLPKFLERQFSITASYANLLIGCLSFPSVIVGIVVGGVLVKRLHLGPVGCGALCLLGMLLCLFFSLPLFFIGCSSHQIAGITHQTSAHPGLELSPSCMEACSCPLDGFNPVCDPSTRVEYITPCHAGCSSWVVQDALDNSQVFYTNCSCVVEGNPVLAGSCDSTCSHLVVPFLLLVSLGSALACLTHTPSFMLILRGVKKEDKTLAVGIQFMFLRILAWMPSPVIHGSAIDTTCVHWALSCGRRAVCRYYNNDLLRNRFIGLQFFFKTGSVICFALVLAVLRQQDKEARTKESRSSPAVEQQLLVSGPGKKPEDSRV

OATP1B1 = target: T2, OATP1B1 (Homo sapiens, UniProt Q9Y6L6); assay type: cell-based; details: hek-oatp1b1 cells
T2 sequence (Q9Y6L6 1-691): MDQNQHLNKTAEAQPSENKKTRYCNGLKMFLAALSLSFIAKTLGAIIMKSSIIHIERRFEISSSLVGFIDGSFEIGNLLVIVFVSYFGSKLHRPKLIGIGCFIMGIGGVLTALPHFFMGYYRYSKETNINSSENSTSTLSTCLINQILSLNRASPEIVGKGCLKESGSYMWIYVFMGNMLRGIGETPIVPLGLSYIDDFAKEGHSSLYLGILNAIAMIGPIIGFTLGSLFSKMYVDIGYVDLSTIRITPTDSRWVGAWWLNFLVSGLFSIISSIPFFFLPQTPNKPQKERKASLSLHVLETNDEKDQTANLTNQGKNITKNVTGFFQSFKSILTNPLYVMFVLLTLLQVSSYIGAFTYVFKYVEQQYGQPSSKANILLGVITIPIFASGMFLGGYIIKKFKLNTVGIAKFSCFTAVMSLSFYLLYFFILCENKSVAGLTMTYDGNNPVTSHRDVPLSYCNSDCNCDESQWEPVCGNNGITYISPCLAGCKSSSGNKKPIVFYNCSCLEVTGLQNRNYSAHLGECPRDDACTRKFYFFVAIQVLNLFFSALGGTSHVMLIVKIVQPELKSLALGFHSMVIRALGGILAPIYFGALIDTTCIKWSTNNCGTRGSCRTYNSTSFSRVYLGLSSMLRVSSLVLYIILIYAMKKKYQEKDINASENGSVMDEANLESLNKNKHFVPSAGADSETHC

## N=C(N)Nc1ccc(C(=O)Oc2ccc(CC(=O)O)cc2)cc1 [GBPA, 4-(4-guanidinobenzoyloxy)phenylacetic acid]
OATP2B1
  IC50: 11.1 ± 3.3 µM
OATP1B1
  inhibition at 100 µM: ~50%
